Source: US20180118756A1, “COMPOSITIONS AND METHODS OF MODULATING SHORT-CHAIN DEHYDROGENASE ACTIVITY” (CASE WESTERN RESERVE UNIVERSITY, priority 2015, published 2018)

These compounds were tested against T1, recombinant 15-PGDH (Homo sapiens, UniProt P15428) (assay: IC50 for inhibiting enzymatic activity of recombinant 15-PGDH in an in vitro assay). Conditions: Enzyme Inhibitor IC50 (nM) at 5 nM 15-PGDH, recombinant human 15-PGDH at 5 nM, in vitro.
T1 sequence (P15428 1-266): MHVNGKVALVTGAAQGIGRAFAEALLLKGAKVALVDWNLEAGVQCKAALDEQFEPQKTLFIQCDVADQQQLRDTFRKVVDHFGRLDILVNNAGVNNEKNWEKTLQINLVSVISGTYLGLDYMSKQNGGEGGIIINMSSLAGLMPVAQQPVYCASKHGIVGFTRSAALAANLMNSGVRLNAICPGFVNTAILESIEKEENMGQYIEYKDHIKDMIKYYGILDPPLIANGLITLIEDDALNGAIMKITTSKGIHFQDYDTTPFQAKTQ
Format: biochemical

Row | Compound | IC50
1 | CCCC[S+]([O-])c1sc2nc(-c3nccs3)cc(-c3ccc(C(=O)NCCO)cc3)c2c1N (stereo not shown) [SW 212831, 4-(3-amino-2-(butylsulfinyl)-6-(thiazol-2-yl)thieno[2,3-b]pyridin-4-yl)-N-(2-hydroxyethyl)benzamide] | 4 nM
2 | CCCC[S+]([O-])c1sc2nc(-c3nccs3)cc(-c3ccc(COC(=O)NCCN(C)C)cc3)c2c1N (stereo not shown) [SW 212834, 4-(3-amino-2-(butylsulfinyl)-6-(thiazol-2-yl)thieno[2,3-b]pyridin-4-yl)benzyl (2-(dimethylamino)ethyl)carbamate] | 3.3 nM
3 | C=CCNC(=O)COc1ccc(-c2cc(-c3nccs3)nc3sc([S+]([O-])CCCC)c(N)c23)cc1 (stereo not shown) [SW 212835, N-allyl-2-(4-(3-amino-2-(butylsulfinyl)-6-(thiazol-2-yl)thieno[2,3-b]pyridin-4-yl)phenoxy)acetamide] | 4.2 nM
4 | CCCC[S+]([O-])c1sc2nc(-c3nccs3)cc(-c3ccc(CC(=O)OC)cc3)c2c1N (stereo not shown) [SW 213150, Methyl 2-(4-(3-amino-2-(butylsulfinyl)-6-(thiazol-2-yl)thieno[2,3-b]pyridin-4-yl)phenyl)acetate] | 4 nM
5 | CCCC[S+]([O-])c1sc2nc(-c3nccs3)cc(-c3ccc(COCCO)cc3)c2c1N (stereo not shown) [SW 213153, 2-((4-(3-amino-2-(butylsulfinyl)-6-(thiazol-2-yl)thieno[2,3-b]pyridin-4-yl)benzyl)oxy)ethan-1-ol] | 2 nM
6 | CCCC[S+]([O-])c1sc2nc(-c3nccs3)cc(-c3cnc(OC)n3C)c2c1N (stereo not shown) [SW 213155, 2-(butylsulfinyl)-4-(2-methoxy-1-methyl-1H-imidazol-5-yl)-6-(thiazol-2-yl)thieno[2,3-b]pyridin-3-amine] | 19 nM
7 | CCCC[S+]([O-])c1sc2nc(-c3ncc(C)s3)cc(-c3cnc(C)n3C)c2c1N (stereo not shown) [SW 213208, 2-(butylsulfinyl)-4-(1,2-dimethyl-1H-imidazol-5-yl)-6-(5-methylthiazol-2-yl)thieno[2,3-b]pyridin-3-amine] | 7.5 nM
8 | CCCC[S+]([O-])c1sc2nc(-c3nccs3)cc(-c3ccc(CNC(=O)NCCO)cc3)c2c1N (stereo not shown) [SW 213209, 1-(4-(3-amino-2-(butylsulfinyl)-6-(thiazol-2-yl)thieno[2,3-b]pyridin-4-yl)benzyl)-3-(2-hydroxyethyl)urea] | 2.8 nM
9 | CCCC[S+]([O-])c1sc2nc(-c3nccs3)cc(-c3ccc(CNC(=O)CN(C)C)cc3)c2c1N (stereo not shown) [SW 213210, N-(4-(3-amino-2-(butylsulfinyl)-6-(thiazol-2-yl)thieno[2,3-b]pyridin-4-yl)benzyl)-2-(dimethylamino)acetamide] | 5 nM
10 | CCCC[S+]([O-])c1sc2nc(-c3nccs3)cc(-c3ccc(CNC(=O)COC)cc3)c2c1N (stereo not shown) [SW 213211, N-(4-(3-amino-2-(butylsulfinyl)-6-(thiazol-2-yl)thieno[2,3-b]pyridin-4-yl)benzyl)-2-methoxyacetamide] | 2.9 nM
11 | CCCC[S+]([O-])c1sc2nc(-c3nccs3)cc(-c3ccnn3C)c2c1N (stereo not shown) [SW 217780, 2-(butylsulfinyl)-4-(1-methyl-1H-pyrazol-5-yl)-6-(thiazol-2-yl)thieno[2,3-b]pyridin-3-amine] | 3.1 nM
12 | CCCC[S+]([O-])c1sc2nc(-c3nccs3)cc(-c3cnnn3C)c2c1N (stereo not shown) [SW 217782, 2-(butylsulfinyl)-4-(1-methyl-1H-1,2,3-triazol-5-yl)-6-(thiazol-2-yl)thieno[2,3-b]pyridin-3-amine] | 5.4 nM
13 | CCCC[S+]([O-])c1sc2nc(-c3nccs3)cc(-c3cocn3)c2c1N (stereo not shown) [SW 217936, 2-(butylsulfinyl)-4-(oxazol-4-yl)-6-(thiazol-2-yl)thieno[2,3-b]pyridin-3-amine] | 2.2 nM
14 | CCCC[S+]([O-])c1sc2nc(-c3nccs3)cc(-c3nc(C)cs3)c2c1N (stereo not shown) [SW 217937, 2-(butylsulfinyl)-4-(4-methylthiazol-2-yl)-6-(thiazol-2-yl)thieno[2,3-b]pyridin-3-amine] | 1.8 nM
15 | CCCC[S+]([O-])c1sc2nc(-c3nccs3)cc(-c3scnc3C)c2c1N (stereo not shown) [SW 217938, 2-(butylsulfinyl)-4-(4-methylthiazol-5-yl)-6-(thiazol-2-yl)thieno[2,3-b]pyridin-3-amine] | 2.1 nM
16 | CCCC[S+]([O-])c1sc2nc(-c3nccs3)cc(-c3ocnc3C)c2c1N (stereo not shown) [SW 217939, 2-(butylsulfinyl)-4-(4-methyloxazol-5-yl)-6-(thiazol-2-yl)thieno[2,3-b]pyridin-3-amine] | 4.5 nM
17 | COCCC[S+]([O-])c1sc2nc(-c3nccs3)nc(-c3ccccc3)c2c1N (stereo not shown) [SW 217995, 6-((3-methoxypropyl)sulfinyl)-4-phenyl-2-(thiazol-2-yl)thieno[2,3-d]pyrimidin-5-amine] | 3 nM

Row | Compound | IC50
18 | COCC[S+]([O-])c1sc2nc(-c3nccs3)nc(-c3ccccc3)c2c1N (stereo not shown) [SW 217996, 6-((2-methoxyethyl)sulfinyl)-4-phenyl-2-(thiazol-2-yl)thieno[2,3-d]pyrimidin-5-amine] | 3.4 nM
19 | Nc1c([S+]([O-])c2ccccc2)sc2nc(-c3nccs3)cc(-c3ccc(OCCO)cc3)c12 (stereo not shown) [SW 217997, 2-(4-(3-amino-2-(phenylsulfinyl)-6-(thiazol-2-yl)thieno[2,3-b]pyridin-4-yl)phenoxy)ethan-1-ol] | 12 nM
20 | CCCC[S+]([O-])c1sc2nc(-c3nccs3)cc(-c3ccc(OCCF)cc3)c2c1N (stereo not shown) [SW 217998, 2-(butylsulfinyl)-4-(4-(2-fluoroethoxy)phenyl)-6-(thiazol-2-yl)thieno[2,3-b]pyridin-3-amine] | 3.2 nM
21 | CCCC[S+]([O-])c1sc2nc(-c3cccs3)cc(-c3ccccc3)c2c1NC(C)=O (stereo not shown) [SW 218030, N-(2-(butylsulfinyl)-4-phenyl-6-(thiophen-2-yl)thieno[2,3-b]pyridin-3-yl)acetamide] | 6890 nM
22 | CCCC[S+]([O-])c1sc2nc(-c3cccs3)cc(-c3ccccc3)c2c1NC(=O)OC (stereo not shown) [SW 218031, methyl (2-(butylsulfinyl)-4-phenyl-6-(thiophen-2-yl)thieno[2,3-b]pyridin-3-yl)carbamate] | 1380 nM
23 | Nc1c(C(=O)N2CCCCC2)sc2nc(-c3cccs3)cc(-c3ccccc3)c12 [SW 218331, (3-amino-4-phenyl-6-(thiophen-2-yl)thieno[2,3-b]pyridin-2-yl)(piperidin-1-yl)methanone] | 41 nM
24 | CCCNS(=O)(=O)c1sc2nc(-c3cccs3)cc(-c3ccccc3)c2c1N [SW 218332, 3-amino-4-phenyl-N-propyl-6-(thiophen-2-yl)thieno[2,3-b]pyridine-2-sulfonamide] | 113 nM
25 | CCOC[S+]([O-])c1sc2nc(-c3nccs3)cc(-c3cnc(C)n3C)c2c1N (stereo not shown) [SW 218398, 4-(1,2-dimethyl-1H-imidazol-5-yl)-2-((ethoxymethyl)sulfinyl)-6-(thiazol-2-yl)thieno[2,3-b]pyridin-3-amine] | 9.1 nM
26 | CCCC[S+]([O-])c1sc2nc(-c3cccs3)cc(-c3ccccc3)c2c1O (stereo not shown) [SW 218399, 2-(butylsulfinyl)-4-phenyl-6-(thiophen-2-yl)thieno[2,3-b]pyridin-3-ol] | 135 nM
27 | Nc1c(S(=O)(=O)N2CCCCC2)sc2nc(-c3cccs3)cc(-c3ccccc3)c12 [SW 218400] | > 100 nM
28 | CCCC[S+]([O-])c1sc2nc(-c3nccs3)cc(-c3c(C)ncn3C)c2c1N (stereo not shown) [SW 218475, 2-(butylsulfinyl)-4-(1,4-dimethyl-1H-imidazol-5-yl)-6-(thiazol-2-yl)thieno[2,3-b]pyridin-3-amine] | 3.4 nM
29 | CCCC[S+]([O-])c1sc2nc(-c3nccs3)cc(-c3cnc(CC)n3C)c2c1N (stereo not shown) [SW 218476, 2-(butylsulfinyl)-4-(2-ethyl-1-methyl-1H-imidazol-5-yl)-6-(thiazol-2-yl)thieno[2,3-b]pyridin-3-amine] | 2 nM
30 | CCCC[S+]([O-])c1sc2nc(-c3nccs3)cc(-c3ncn(C)c3C)c2c1N (stereo not shown) [SW 218477, 2-(butylsulfinyl)-4-(1,5-dimethyl-1H-imidazol-4-yl)-6-(thiazol-2-yl)thieno[2,3-b]pyridin-3-amine] | 3.8 nM
31 | CCCC[S+]([O-])c1sc2nc(-c3nccs3)cc(-c3cnc(C)n3C3CC3)c2c1N (stereo not shown) [SW 218478, 2-(butylsulfinyl)-4-(1-cyclopropyl-2-methyl-1H-imidazol-5-yl)-6-(thiazol-2-yl)thieno[2,3-b]pyridin-3-amine] | 2.4 nM
32 | Nc1c([S+]([O-])C2CCCCC2)sc2nc(-c3cccs3)cc(-c3ccccc3)c12 (stereo not shown) [SW 218520, 2-(cyclohexylsulfinyl)-4-phenyl-6-(thiophen-2-yl)thieno[2,3-b]pyridin-3-amine] | 3.3 nM
33 | CCCC[S+]([O-])c1sc2nc(-c3nccs3)cc(-c3nccn3CC)c2c1N (stereo not shown) [SW 218521, 2-(butylsulfinyl)-4-(1-ethyl-1H-imidazol-2-yl)-6-(thiazol-2-yl)thieno[2,3-b]pyridin-3-amine] | 2.2 nM
34 | CCCC[S+]([O-])c1sc2nc(-c3nccs3)cc(-c3nc(C)c(C)n3C)c2c1N (stereo not shown) [SW 218522, 2-(butylsulfinyl)-6-(thiazol-2-yl)-4-(1,4,5-trimethyl-1H-imidazol-2-yl)thieno[2,3-b]pyridin-3-amine] | 2.5 nM

Same assay, conditions: read-out: Enzyme Inhibitor IC50 (nM) at 5 nM 15-PGDH; recombinant human 15-PGDH at 5 nM, in vitro

Row | Compound | IC50
35 | CCCC[S@@+]([O-])c1sc2nc(-c3nccs3)cc(-c3cncn3C)c2c1N (single isomer, unassigned) [(+)-SW 217985] | 0.9 nM
36 | CCCC[S@+]([O-])c1sc2nc(-c3nccs3)cc(-c3cncn3C)c2c1N (single isomer, unassigned) [(−)-SW 217986] | 765 nM

Same assay, conditions: recombinant human 15-PGDH at 5 nM

Row | Compound | extent of 15-PGDH inhibition (remark)
37 | Nc1c(S(=O)(=O)N2CCCCC2)sc2nc(-c3cccs3)cc(-c3ccccc3)c12 [SW 218400] | incomplete inhibition
